From ChEMBL document CHEMBL1157539, “Thousands of chemical starting points for antimalarial lead identification” (Nature, 2010)

test system: Plasmodium falciparum; assay: GSK_TCMDC: Inhibition of Plasmodium falciparum 3D7 in whole erythrocytes, using parasite LDH activity as an index of growth.; format: functional, organism-based; conditions: not given

| Structure (SMILES) | XC50 |
| --- | --- |
| COC(=O)c1ccc(CC(C)NCC(O)c2cccc(C(F)(F)F)c2)cc1 (stereo not drawn) | 974 nM |

same assay, conditions: Plasmodium falciparum, 3D7

| Structure (SMILES) | XC50 |
| --- | --- |
| CCN(CC)CCn1c(=N)n(CC(=O)c2ccc(-c3ccccc3)cc2)c2ccccc21 | 1140 nM |
| Cc1ccn2c(C(=O)N3CCN(c4cccc5c4nc(-c4ccoc4)n5Cc4ccccn4)CC3)c(C)nc2c1 | 203 nM |
| N#Cc1cccc(CN2CCCN(Cc3cccc(C(=O)Nc4ccc(Cl)cc4)c3)CC2)c1 | 1180 nM |
| c1ccc2cc3c(NCCN4CCOCC4)ccnc3cc2c1 | 168 nM |
| CN1C(=O)C(=NN=C(S)N2CCOCC2)c2ccccc21 | 901 nM |
| Nc1ccncc1C(=O)NCCCCN1CCN(c2nsc3ccccc23)CC1 | 803 nM |
| COc1ccc2[nH]ccc(=NN=Cc3ccccc3)c2c1 | 110 nM |
| CN1CCC(C(=O)Nc2ccc(-c3ccc(-c4nc5ccccc5[nH]4)cc3)cc2)CC1 | 976 nM |
| CCn1ccc2c(N3CCCCS3(=O)=O)cc(C(=O)N[C@@H](Cc3ccccc3)[C@H](O)CNC(C)(C)CCCC(C)C)cc21 | 418 nM |
| COC(=O)c1ccc(CC(C)NCC(O)c2cccc(C(F)(F)F)c2)cc1 (stereo not drawn) | 1150 nM |
| CN(C)c1ccc(C=CC(=O)NC(=O)c2ccccc2O)cc1 | 227 nM |
| CCOc1c(N2CCN(CCCCNC(=O)c3ccc(NC(=O)c4ccc(Cl)cc4)cc3)CC2)ccc2ccccc12 | 684 nM |
| CCN(CC)CCCC(C)N/C(=N\c1ccccc1Br)Nc1ccc(C#N)cc1O (stereo not drawn) | 1040 nM |
| Clc1nc(Cl)c2c(ccn2Cc2ccccc2)n1 | 787 nM |
| Cc1ccc(N2C(N)=NC(N)=NC2c2ccccc2)cc1 (stereo not drawn) | 56.6 nM |
| O=C(Nc1cccc(-c2ccc(-c3nc4cc(C(F)(F)F)ccc4[nH]3)cc2)c1)c1c[nH]cn1 | 966 nM |
| COc1ccccc1Cc1c(C)nc2nc(N)nc(N)c2c1C | 569 nM |
| CCN(CC)c1nc(N)c2c(N)nc3c(c2c1C#N)C(=O)CN3Cc1ccccc1 | 70.8 nM |
| COc1ccc(-c2cc(-c3nc4cc(C(=O)N5CCOCC5)ccc4[nH]3)c(=O)n(C)c2)cc1OC | 863 nM |
| Cc1cc(-c2ccnc(Nc3cccc(C#N)c3)n2)cc(C)c1O | 924 nM |
| Cc1cccc2nc(-c3ccc(-c4cccc(CNCC5CCCO5)c4)cc3)[nH]c12 (stereo not drawn) | 700 nM |
| O=C(Nc1ccc(SC(F)(F)F)cc1)Nc1ccnc2ccccc12 | 746 nM |
| CCc1ccc(C(=O)Nc2cccc(CN3CCCN(Cc4ccc(O)cc4)CC3)c2)cc1 | 1030 nM |
| CCCN(CCC)CCCNc1ccc(C(=O)Nc2ccc(C(C)C)cc2)cc1[N+](=O)[O-] | 709 nM |
| CC(C)n1nc(C(=O)N2CCN(c3ccccc3)CC2)c2ccccc2c1=O | 979 nM |
| C=CCC1OC(=O)c2cc(OC)cc(OC)c21 (stereo not drawn) | 343 nM |

| Structure (SMILES) | XC50 |
| --- | --- |
| COc1cc2nc(N3CCC(CNCc4ccc(-c5ccc(C(F)(F)F)cc5)cc4)CC3)nc(N)c2cc1OC | 86.9 nM |
| CSc1nc2nc(C)c(Cc3cccc(F)c3)c(C)n2n1 | 904 nM |
| O=C(/C=C/c1cc(C(F)(F)F)ccc1F)NCCCCCN1CCC(c2c[nH]c3ccccc23)CC1 | 1130 nM |
| CC(=O)Nc1cccc(C(=O)Nc2cccc(-c3ccc(-c4nc5cc(F)ccc5[nH]4)cc3)c2)c1 | 764 nM |
| c1ccc(-c2csc(Nc3nc4cc5c(cc4s3)OCO5)n2)nc1 | 579 nM |
| COc1ccc(-c2ccc3c(-c4ccc(F)cc4)cnc(N)c3c2)cn1 | 388 nM |
| COc1ccc2nccc([C@@H](O)CN3CCC(NCc4ccc5c(c4)N(C)C(=O)CO5)CC3)c2c1 | 745 nM |
| COc1ccccc1-c1nc2nc(N)nc(N)c2nc1-c1ccccc1OC | 1250 nM |
| Cc1nn(-c2cccc(Cl)c2)c2c1C(C(=O)c1ccc3c(c1)OCO3)CC(=O)N2 (stereo not drawn) | 371 nM |
| N=C(N)NN=C1C=Cc2cccc3cccc1c23 | 609 nM |
| Cc1ccc(Oc2ccccc2NC(=O)CCc2nc3ccccc3c(=O)[nH]2)cc1 | 827 nM |
| O=c1cc(NCCCNCc2ccc3c(c2)OC(F)(F)O3)[nH]c2ccccc12 | 770 nM |
| COc1ccc(C=NNc2nc(O)cc(-c3ccccc3)n2)cc1OC | 595 nM |
| COc1cc(CC(C)NCC(O)c2cccc(C(F)(F)F)c2)ccc1OCc1ccccc1 (stereo not drawn) | 818 nM |
| CCc1nc(N)nc(N)c1-c1ccc(F)cc1 | 407 nM |
| CN(C)CCCOc1ccc(CNCC(C)(C)c2nc(-c3ccc(Cl)c(O)c3)c(-c3ccncc3)[nH]2)cc1 | 708 nM |
| O=C(Cn1c(CCc2cccc(F)c2F)cc(=O)c2cccnc21)N(CCCn1ccnc1)Cc1ccc(-c2ccc(C(F)(F)F)cc2)cc1 | 797 nM |
| O=C(Cn1c(SCc2cccc(F)c2F)cc(=O)c2ccccc21)N(CCN1CCCCC1)Cc1ccc(-c2ccc(C(F)(F)F)cc2)cc1 | 664 nM |
| CCCNCc1ccc(-c2ccc(CN(Cc3cnc(C)cn3)C(=O)CC#N)cc2)nc1 | 1220 nM |
| CCSc1ccccc1CON1C(=N)N=C(N)NC1(C)C | 3.2 nM |
| COc1ccc2nc(C)cc(NCc3ccc4ccccc4c3)c2c1 | 468 nM |
| Cc1cc(N[C@@H](Cc2ccccc2)C(=O)NCc2cccc(F)c2)nc(NCCOc2ccccc2)n1 | 786 nM |
| O=C(Nc1ccc(Cl)c(Cl)c1)N(Cc1ccccc1Br)C1CCNCC1 | 1030 nM |
| Cc1cccc(C=NN=c2cc(C)[nH]c3ccc(F)cc23)n1 | 1000 nM |
| COc1ccc(CCNCCCCCCNCCc2cccc([N+](=O)[O-])c2)cc1OC | 997 nM |
| N=C(N)Nc1nc(-c2ccc(NCc3ccc(CNc4cccc(-c5csc(NC(=N)N)n5)c4)cc3)cc2)cs1 | 310 nM |

| Structure (SMILES) | XC50 |
| --- | --- |
| Cc1cc(N/N=C/c2ccc([N+](=O)[O-])cc2)c2ccc(F)cc2n1 | 888 nM |
| CCCCCCNC(=O)c1nn(CCN2CCC(N3CCCC3)CC2)cc1-c1ccc(Cl)c(Cl)c1 | 733 nM |
| CC(O)C1CCCCN1C(=O)c1ccc(-c2cccc(-c3nc4cc(F)ccc4[nH]3)c2)cc1 (stereo not drawn) | 540 nM |
| CCN(CCCN1CCCCC1)c1cc(C)nc(Nc2ccc(C)c(C)c2)n1 | 1020 nM |
| CNc1nc(Nc2ccccc2C)nc2ccccc12 | 443 nM |
| COc1ccc(CN2CCC(NCc3cccc([N+](=O)[O-])c3)CC2)cc1 | 910 nM |
| COC(=O)c1cccc(CNCc2cccc(-c3ccc(-c4nc5ccccc5[nH]4)cc3)c2)c1 | 354 nM |
| CCOC(=O)c1nc(-c2cc(Cl)nc(Cl)c2)[nH]c1NC(=S)NCCCN1CCOCC1 | 925 nM |
| O=C(NCc1ccc(Cl)c(Cl)c1)[C@H]1CNCCN1C(=O)c1ccccc1 | 955 nM |
| CCOC(=O)CN1Cc2cc(NCc3ccc4ccc5nc(C)[nH]c(=O)c5c4c3)ccc2C1=O | 700 nM |
| CC(C)N1CCC(N(Cc2ccc(-c3ccc(Cl)cc3)cc2)C(=O)Cn2c(CCc3cccc(F)c3F)cc(=O)c3ccccc32)CC1 | 929 nM |
| O=C(NCCCN1CCC(Cc2ccccc2)CC1)c1cc2c(Cl)nc3ccccc3c2s1 | 744 nM |
| CN(C)CCCNCc1ccc(-c2ccc(F)c(Cl)c2)o1 | 802 nM |
| CC1CCN(CC[C@H]2CCCN2S(=O)(=O)c2cccc(NC(=O)c3cc4ccccc4s3)c2)CC1 | 830 nM |
| Cc1[nH]c(C)c(-c2ccc(-c3cc(C(F)(F)F)cc(C(F)(F)F)c3)nc2)c(=O)c1Br | 81.4 nM |
| O=C(Nc1cccc(-c2csc(-c3ccccc3)n2)c1)c1cccs1 | 800 nM |
| CC(C)c1ccc(CN2CCC(NC(=O)c3ccc(-c4ccccc4F)s3)CC2)cc1 | 1550 nM |
| O=C(/C=C/c1ccc(Cl)c(Cl)c1)NC1CCC(CN2CCC(Cc3cc4ccccc4[nH]3)CC2)CC1 (stereo not drawn) | 508 nM |
| O=c1cc(NCCCNC2CCOc3c(Cl)cc(Cl)cc32)[nH]c2ccccc12 (stereo not drawn) | 724 nM |
| COc1ccccc1NC(=S)N/N=C/c1ccc(O)cc1O | 1020 nM |
| COCCCC1C(=O)OC2CCCC21 (stereo not drawn) | 699 nM |
| CN1CCc2cc(Br)c(O)cc2C1Cc1ccccc1Cl (stereo not drawn) | 667 nM |
| CCCCNC(=O)[C@@H](NC(=O)c1ccc(O)c(-c2ccc(Cl)c(Cl)c2)c1)C(C)C | 230 nM |
| O=C(Nc1ccc(-c2nc3ccccc3[nH]2)cc1)C1CCCN(C2CCC2)C1 (stereo not drawn) | 1350 nM |
| c1cc(C2=NC3CCCCC3N2)ccc1OCCCOc1ccc(C2=NC3CCCCC3N2)cc1 (stereo not drawn) | 731 nM |
| CCOc1ccc2c(=NN=Cc3cc(OC)c(OC)cc3OC)cc(C)[nH]c2c1 | 997 nM |

| Structure (SMILES) | XC50 |
| --- | --- |
| Cc1cc(NC(=O)Nc2ccc(N(C)C)cc2)c2cc(Cl)ccc2n1 | 857 nM |
| COC(=O)c1cccc(CNCc2ccc(-c3ccc(-c4nc5cc(F)ccc5[nH]4)cc3)cc2)c1 | 237 nM |
| Cc1ccccc1C1CCN(C2CCC(NC(=O)C3=Cc4cc(Cl)ccc4OC3)CC2)CC1 (stereo not drawn) | 889 nM |
| COc1ccc(Nc2nccc(N3CCC(NC(=O)C(C)c4ccc(Cl)cc4)CC3)n2)cc1 (stereo not drawn) | 934 nM |
| CCCCCCN(CCCCCC)CC(O)c1cc(-c2ccc(Cl)cc2)nc2c(C)cc(C)cc12 (stereo not drawn) | 67.3 nM |
| Cc1ccc(NC(=O)c2ccc(NCCCN3CC(C)CC(C)C3)c([N+](=O)[O-])c2)cc1F (stereo not drawn) | 711 nM |
| NCCC(=O)Nc1ccc(-c2cnc3[nH]cc(-c4ccc(C(=O)O)cc4)c3c2)cn1 | 842 nM |
| COC(=O)c1ccc(CC(C)NCC(O)c2cccc(Br)c2)cc1 (stereo not drawn) | 694 nM |
| COc1ccc2ncc(C#N)c(CCN3C4CCC3CC(NCc3ccc5c(n3)NC(=O)CS5)C4)c2c1 (stereo not drawn) | 810 nM |
| CCCCOc1cc(C)nc2ccc(NC(=O)COCC(=O)Nc3ccc4nc(C)cc(OCCCC)c4c3)cc12 | 1000 nM |
| Cn1c(-c2ccccc2)cc2c3c(=O)cc(C(F)(F)F)[nH]c3ccc21 | 849 nM |
| CCOc1cc(C=NNc2nc(C)cc(-n3nc(C)cc3C)n2)ccc1O | 1080 nM |
| COc1ccccc1C1CCN(C2CCC(NC(=O)/C=C/c3ccc(OC(F)(F)F)cc3)CC2)CC1 (stereo not drawn) | 1350 nM |
| COc1cccc(-c2cc(-c3ccc(NC(=O)c4ccccc4)cc3)c3c(N)ncnc3n2)c1 | 587 nM |
| Cn1nccc1C(=O)NCCNCc1cccc(-c2ccc(-c3nc4ccccc4[nH]3)cc2)c1 | 473 nM |
| CC(=O)Nc1ccc(CN2CCN(C(c3ccc(F)cc3)c3ccc(F)cc3)CC2)cc1 | 831 nM |
| Cc1cc(N2CCCN(C)CC2)nc(Nc2ccc(Br)cc2)n1 | 723 nM |
| CCOc1ccc2[nH]c(C)cc(=NN=Cc3cccnc3)c2c1 | 155 nM |
| COCCNCc1ccc(-c2cccc(CNc3ccc(OC)cc3)c2)cc1 | 1040 nM |
| COC(=O)c1ccc2nc(-c3ccc(/C=C/C(=O)NCc4ccc(Cl)c(Cl)c4)cc3)[nH]c2c1 | 1340 nM |
| O=C(Nc1ccc(OC2CCN(Cc3ccccc3)C2)c(Cl)c1)c1cccs1 (stereo not drawn) | 388 nM |
| C=CCc1cc(Cc2cnc(N)nc2N)c2ccc(C)nc2c1OC | 691 nM |
| COc1ccc(C2CNCc3c2cc(OC)c(OC)c3Cl)cc1 (stereo not drawn) | 731 nM |
| COc1ccc(Nc2nc(NN=Cc3cc(Br)c(O)cc3O)nc(Nc3ccc([N+](=O)[O-])cc3)n2)cc1 | 896 nM |
